Values of other authors as cited in patent publication US8415449B2, “Bioresorbable polymers synthesized from monomer analogs of natural metabolites” (Rutgers, The State University of New Jersey, priority 2009, dated 2013).

Details: as part of the clinical evaluation of the sebacic acid anhydride copolymer

In the case of `O=C(O)CCCCCCCCC(=O)O` [sebacic acid], the toxicity finding is given as “nontoxic”.
